Earlier results on 1 substance are cited in patent publication US12310973B2, “Administration and dosage of diaminophenothiazines” (WisTa Laboratories Ltd., priority 2016, dated 2025).

Data set [1] deals with TDP-43 aggregates in SH-SY5Y cells. Particulars: 0.05 μM MT; cited from earlier work.
Data set [2] relates to huntingtin derivative containing a polyglutamine stretch of 102 residues. As to conditions: tested at 0, 10 and 100 μM; zebrafish; cited from earlier work.

Take methylthioninium [MT]: in data set [1], the “Reduction in number of TDP-43 aggregates” value is on record as 50%. Also, in data set [2], the “Formation of aggregates of huntingtin derivative (polyglutamine stretch of 102 residues)” value is recorded as “prevented the formation of such aggregates in zebrafish in a dose dependent manner”.
